Data published in patent US9326513B2, “Fungicidal compositions” (Syngenta Participations AG, priority 2011, dated 2016).
Where “and” joins values, the source holds several entries; their conditions need not be identical. Identical values can stand only once.

Legend:
[1] = system: Blumeria graminis f. sp. tritici (Erysiphe graminis f. sp. tritici); assay: Blumeria graminis f. sp. tritici / wheat / leaf disc preventative (powdery mildew on wheat); format: in vivo; settings: foliar, compared to untreated control leaf disks, read-out: disease control
How it was run: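 Wheat leaf segments (cv. Kanzler) on agar were sprayed with formulated compound in water, inoculated with powdery mildew 1 day later, and kept at 20° C, 60% rh (24 h dark, then 12 h light/12 h dark). Percent disease control versus untreated scored 6-8 days after application; tested at 200 ppm.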

[2] = system: Phakopsora pachyrhizi (triazole tolerant soybeanrust strain); assay: Phakopsora pachyrhizi on soybean, preventive treatment; format: in vivo; settings: solo, soybean leaf discs, 1 day preventive, 11 days after application
[3] = system: Mycosphaerella arachidis (y. Cercospora arachidicola); assay: Mycosphaerella arachidis (brown leaf spot of groundnut), PDB microtiter plate, visual after 5-6 days; format: cell-based; settings: single compound
[4] = system: Fusarium graminearum and Fusarium culmorum; format: in vivo; settings: solo, 200 g a.i./ha; wheat, 1 day preventive, 9 days after application
[5] = system: Puccinia recondita f. sp. tritici; assay: Puccinia recondita f. sp. tritici / wheat / leaf disc curative (brown rust); format: in vivo; settings: foliar, compared to untreated control leaf disks, read-out: disease control
Procedure: Puccinia recondita f. sp. tritici/Wheat/Leaf Disc Curative (Brown Rust) Wheat leaf segments cv. Kanzler are placed on agar in multiwell plates (24-well format). The leaf segments are inoculated with a spore suspension of the fungus. Plates were stored in darkness at 19° C. and 75% rh. The formulated test compound diluted in water was applied 1 day after inoculation.

Botrytis cinerea = Botrytis cinerea (gray mould), PDB microtiter plate, visual after 72 hrs; format: cell-based; settings: alone
[6] = system: Puccinia recondita f. sp. tritici; assay: Puccinia recondita f. sp. tritici / wheat / leaf disc preventative (brown rust); format: in vivo; settings: foliar, compared to untreated control leaf disks, read-out: disease control
Excerpt: Puccinia recondita f. sp. tritici/Wheat/Leaf Disc Preventative (Brown Rust) Wheat leaf segments cv. Kanzler were placed on agar in multiwell plates (24-well format) and sprayed with the formulated test compound diluted in water. The leaf disks were inoculated with a spore suspension of the fungus 1 day after application.

[7] = system: Monographella nivalis (syn. Microdochium nivale, Fusarium nivale); assay: Monographella nivalis (snow mould, foot rot of cereals), PDB microtiter plate, visual after 72 hrs; format: cell-based; settings: applied alone
Septoria tritici [8] = assay: Septoria tritici (leaf blotch), YBG microtiter plate, photometric growth inhibition after 6 days; format: cell-based; settings: Zymoseptoria tritici, 144 h, solo
Sclerotinia sclerotiorum = Sclerotinia sclerotiorum on oilseed rape, preventive treatment; format: in vivo; settings: solo, 1 day preventive, 11 days after application
Excerpt: In the following Tables ‘Activity (%)’ means the assessed experimental activity (% disease control in this test when compared to untreated control leaf disks under the same conditions, which show extensive disease development) and “P” is the expected value calculated (expected) activity according to the COLBY formula (see above). The column headed ‘S?’ indicates whether or not synergy was observed, with ‘y’ meaning that synergy was observed.
Sclerotinia sclerotiorum on Oilseed Rape, Preventive Treatment
The compound activity was tested under 1 day preventive conditions. Oilseed rape plants with 3 unfolded leafs were sprayed with a track sprayer and 200 I/ha spray volume with the test compounds, either solo or in tankmix as shown in the table below.
1 day after application the plants were infested with a solution of Sclerotinia sclerotiorum mycelium. The plants were placed under plastic hoods and high humidity conditions in a climate chamber at 14 h day/10 h night cycle and 15° C. Disease infestation was evaluated visually 11 days after application and average activity calculated in relation to disease severity on untreated check.

Septoria tritici [9] = assay: Septoria tritici (leaf blotch), PDB microtiter plate, visual after 72 hrs; format: cell-based; settings: Zymoseptoria tritici, single compound
Septoria tritici [10] = assay: Septoria tritici on wheat, preventive treatment; format: in vivo; settings: solo, wheat Riband, 1 day preventive, 18 days after application

CCN(C)/C=N/c1cc(Br)c(O[C@H]2CC[C@@H](C(C)C)CC2)nc1C [Q.135]
20%: Activity (%) ([3]; 0.015625 ppm) | Activity (%) (Botrytis cinerea; rate 0.5 ppm) | Activity (%) (Botrytis cinerea; rate 1 ppm) | Activity (%) ([7]; rate 0.0625 ppm)
41%: Activity ([2]; rate 2 g ai/ha)
33% and 43%: Activity (Septoria tritici [10]; 9 g a.i./ha)
70%: Activity (%) ([3]; 0.03125 ppm) | Activity (%) ([3]; 0.0625 ppm) | inhibition at 2 ppm (Botrytis cinerea; Botrytis cinerea, rate 2 ppm) | inhibition at 0.125 ppm ([7]; Monographella nivalis, rate 0.125 ppm) | Activity (Septoria tritici [10]; 81 g a.i./ha)
0% and 9%: Activity (Septoria tritici [10]; 3 g a.i./ha)
52% and 82%: Activity (Septoria tritici [10]; 27 g a.i./ha)
34%: inhibition of growth at 0.3125 ppm (Septoria tritici [8]; rate 0.3125 ppm)
28%: Activity [4]
22%: inhibition of growth at 1.25 ppm (Septoria tritici [8]; rate 1.25 ppm)
50%: inhibition at 0.03125 ppm ([3]; Mycosphaerella arachidis, 0.03125 ppm, read-out: Activity (%)) | inhibition at 0.0625 ppm ([3]; Mycosphaerella arachidis, 0.0625 ppm, read-out: Activity (%)) | Activity (%) (Botrytis cinerea; rate 2 ppm) | inhibition at 0.625 ppm ([7]; Monographella nivalis, rate 0.625 ppm)
13%: Activity ([2]; rate 0.5 g ai/ha)
15%: Activity (Sclerotinia sclerotiorum; rate 100 ppm)
≥ 50%: pest or weed control at 200 ppm [1] | pest or weed control at 200 ppm [5] | pest or weed control at 200 ppm [6]
29%: inhibition of growth at 0.15625 ppm (Septoria tritici [8]; rate 0.15625 ppm, read-out: Activity)
0%: inhibition at 0.00390625 ppm ([3]; Mycosphaerella arachidis, 0.00390625 ppm, read-out: Activity (%)) | inhibition at 0.15625 ppm ([3]; Mycosphaerella arachidis, 0.15625 ppm) | inhibition at 0.00390625 ppm (Botrytis cinerea; Botrytis cinerea, rate 0.00390625 ppm) | inhibition at 0.0078125 ppm (Botrytis cinerea; Botrytis cinerea, rate 0.0078125 ppm) | inhibition at 0.015625 ppm (Botrytis cinerea; Botrytis cinerea, rate 0.015625 ppm) | inhibition at 0.03125 ppm (Botrytis cinerea; Botrytis cinerea, rate 0.03125 ppm, read-out: Activity (%)) | inhibition at 0.0625 ppm (Botrytis cinerea; Botrytis cinerea, rate 0.0625 ppm, read-out: Activity (%)) | inhibition at 0.125 ppm (Botrytis cinerea; Botrytis cinerea, rate 0.125 ppm) | inhibition at 0.25 ppm (Botrytis cinerea; Botrytis cinerea, rate 0.25 ppm) | inhibition at 0.0078125 ppm ([7]; Monographella nivalis, rate 0.0078125 ppm) | inhibition at 0.015625 ppm ([7]; Monographella nivalis, rate 0.015625 ppm) | inhibition at 0.3125 ppm ([7]; Monographella nivalis, rate 0.3125 ppm) | Activity (Sclerotinia sclerotiorum; rate 25 ppm) | Activity (Sclerotinia sclerotiorum; rate 50 ppm) | inhibition at 0.00390625 ppm (Septoria tritici [9]; 0.00390625 ppm) | inhibition at 0.0078125 ppm (Septoria tritici [9]; 0.0078125 ppm) | inhibition at 0.015625 ppm (Septoria tritici [9]; 0.015625 ppm) | inhibition at 0.03125 ppm (Septoria tritici [9]; 0.03125 ppm) | inhibition at 0.0625 ppm (Septoria tritici [9]; 0.0625 ppm) | inhibition at 0.125 ppm (Septoria tritici [9]; 0.125 ppm) | inhibition at 0.25 ppm (Septoria tritici [9]; 0.25 ppm, read-out: Activity (%)) | inhibition at 0.5 ppm (Septoria tritici [9]; 0.5 ppm) | inhibition at 1 ppm (Septoria tritici [9]; 1 ppm) | inhibition at 2 ppm (Septoria tritici [9]; 2 ppm) | Activity (Septoria tritici [10]; 1 g a.i./ha)
32%: inhibition of growth at 0.625 ppm (Septoria tritici [8]; rate 0.625 ppm)
